Organism: Rattus norvegicus
Test: Open TG-GATES - Regimen: Daily Repeat
Type: toxicity, organism-based, Sprague-Dawley
Design: regimen Daily Repeat, gender Male, age 6 weeks
Details: in vivo, po, route gavage; for TBIL / TC / TG / TP / gamma-GTP / ALP / ALT / AST / BUN / CRE / Ca / Cl / DBIL / K / LDH / Na / PL / RALB / IP: tissue Plasma; for APTT / Bas / Eos / Fbg / Hb / Ht / Lym / MCH / MCHC / MCV / PT / Plat / RBC / Ret / WBC / Mono / Neu: tissue Blood; for LIVER: tissue Liver
[1] = 1 mg/kg, […], dose level Low, time 28 day
[2] = 3 mg/kg, 72 h, dose level Middle, time 3 day
[3] = 3 mg/kg, 72 h, tissue Kidney, dose level Middle, time 3 day
[4] = 3 mg/kg, […], dose level Middle, time 14 day
[5] = 3 mg/kg, […], dose level Middle, time 28 day
[6] = 3 mg/kg, […], tissue Kidney, dose level Middle, time 14 day
[7] = 3 mg/kg, […], tissue Kidney, dose level Middle, time 28 day
[8] = 10 mg/kg, 72 h, dose level High, time 3 day
[9] = 10 mg/kg, 72 h, tissue Kidney, dose level High, time 3 day
[10] = 10 mg/kg, […], dose level High, time 14 day
[11] = 10 mg/kg, […], dose level High, time 28 day
[12] = 10 mg/kg, […], tissue Kidney, dose level High, time 14 day
[13] = 10 mg/kg, […], tissue Kidney, dose level High, time 28 day

SMILES: C#C[C@]1(O)CC[C@H]2[C@@H]3CCc4cc(O)ccc4[C@H]3CC[C@@]21C [ETHINYL ESTRADIOL]
- TBIL [1]: 0.1 mg/dL
- TC [1]: 50.6 mg/dL
- TG [1]: 82 mg/dL
- TP [1]: 6.8 g/dL
- gamma-GTP [1]: 3.2 IU/L
- TERMINAL_BW [2]: 201.7 g
- APTT [2]: 22.6 s
- Bas [2]: 0%
- Eos [2]: 1%
- Fbg [2]: 302.4 mg/dL
- Hb [2]: 13.7 g/dL
- Ht [2]: 40.3%
- Lym [2]: 76.4%
- MCH [2]: 20.9 pg
- MCHC [2]: 34.1%
- MCV [2]: 61.5 fL
- PT [2]: 13.5 s
- Plat [2]: 106.8 x10_4/uL
- RBC [2]: 656.8 x10_4/ul
- Ret [2]: 4.4%
- WBC [2]: 75.4 x10_2/uL
- KIDNEY_L [3]: 0.9 g
- KIDNEY_R [3]: 1 g
- LIVER [2]: 12.6 g
- ALP [2]: 2898.2 IU/L
- ALT [2]: 40.8 IU/L
- AST [2]: 66.2 IU/L
- BUN [2]: 9.8 mg/dL
- CRE [2]: 0.2 mg/dL
- Ca [2]: 10.5 mg/dL
- Cl [2]: 108.2 meq/L
- DBIL [2]: 0.038 mg/dL
- K [2]: 4 meq/L
- LDH [2]: 77.8 IU/L
- Na [2]: 143.6 meq/L
- PL [2]: 74.8 mg/dL
- RALB [2]: 2.6 g/dL
- TBIL [2]: 0.07 mg/dL
- TC [2]: 24.8 mg/dL
- TG [2]: 55.6 mg/dL
- TP [2]: 5.6 g/dL
- TERMINAL_BW [4]: 223.6 g
- TERMINAL_BW [5]: 227.7 g
- APTT [4]: 19.5 s
- Bas [4]: 0%
- Eos [4]: 1%
- Fbg [4]: 316.6 mg/dL
- Ht [4]: 37.1%
- Lym [4]: 76.2%
- MCH [4]: 20.2 pg
- MCHC [4]: 36%
- MCV [4]: 56.2 fL
- Mono [4]: 2.2%
- Neu [4]: 20%
- PT [4]: 13.6 s
- Plat [4]: 149.1 x10_4/uL
- RBC [4]: 659.8 x10_4/ul
- Ret [4]: 2.4%
- WBC [4]: 96.9 x10_2/uL
- APTT [5]: 24.1 s
- Bas [5]: 0%
- Fbg [5]: 301 mg/dL
- Ht [5]: 37.2%
- Lym [5]: 77.6%
- MCH [5]: 18.7 pg
- MCHC [5]: 36.1%
- MCV [5]: 51.7 fL
- Mono [5]: 2.2%
- PT [5]: 14 s
- Plat [5]: 110.2 x10_4/uL
- RBC [5]: 719 x10_4/ul
- Ret [5]: 2%
- WBC [5]: 69.4 x10_2/uL
- KIDNEY_L [6]: 1 g
- KIDNEY_R [6]: 1 g
- KIDNEY_TOTAL [6]: 2 g
- KIDNEY_L [7]: 1 g
- KIDNEY_R [7]: 1 g
- LIVER [4]: 15.2 g
- LIVER [5]: 13.8 g
- ALP [4]: 2422.2 IU/L
- ALT [4]: 39.2 IU/L
- AST [4]: 55.4 IU/L
- BUN [4]: 16.4 mg/dL
- CRE [4]: 0.3 mg/dL
- Cl [4]: 105.4 meq/L
- DBIL [4]: 0.088 mg/dL
- IP [4]: 6.2 mg/dL
- LDH [4]: 88.2 IU/L
- Na [4]: 143.8 meq/L
- PL [4]: 126.8 mg/dL
- RALB [4]: 3 g/dL
- TBIL [4]: 0.2 mg/dL
- TC [4]: 40.6 mg/dL
- TG [4]: 76.4 mg/dL
- TP [4]: 6.8 g/dL
- gamma-GTP [4]: 4.4 IU/L
- ALP [5]: 1503.2 IU/L
- ALT [5]: 40.6 IU/L
- AST [5]: 50.6 IU/L
- BUN [5]: 14.8 mg/dL
- CRE [5]: 0.2 mg/dL
- Ca [5]: 10.8 mg/dL
- Cl [5]: 105.2 meq/L
- DBIL [5]: 0.062 mg/dL
- IP [5]: 4.9 mg/dL
- K [5]: 3.9 meq/L
- LDH [5]: 51.4 IU/L
- Na [5]: 143.6 meq/L
- PL [5]: 134 mg/dL
- RALB [5]: 3.1 g/dL
- TBIL [5]: 0.1 mg/dL
- TC [5]: 46.8 mg/dL
- TG [5]: 59.2 mg/dL
- TP [5]: 6.9 g/dL
- gamma-GTP [5]: 9.8 IU/L
- TERMINAL_BW [8]: 202.8 g
- APTT [8]: 17.7 s
- Bas [8]: 0.2%
- Eos [8]: 1%
- Fbg [8]: 289.4 mg/dL
- Hb [8]: 13.2 g/dL
- Ht [8]: 38.8%
- Lym [8]: 81.8%
- MCHC [8]: 34.2%
- MCV [8]: 62.2 fL
- Mono [8]: 4.8%
- Neu [8]: 12%
- Plat [8]: 114.3 x10_4/uL
- RBC [8]: 623.8 x10_4/ul
- Ret [8]: 4.8%
- WBC [8]: 91.7 x10_2/uL
- KIDNEY_L [9]: 1 g
- KIDNEY_R [9]: 1 g
- LIVER [8]: 13.9 g
- ALP [8]: 2718.6 IU/L
- ALT [8]: 40.8 IU/L
- AST [8]: 63 IU/L
- BUN [8]: 9.4 mg/dL
- CRE [8]: 0.2 mg/dL
- Ca [8]: 10.3 mg/dL
- Cl [8]: 107.8 meq/L
- DBIL [8]: 0.044 mg/dL
- IP [8]: 7.8 mg/dL
- K [8]: 4.3 meq/L
- LDH [8]: 76.8 IU/L
- PL [8]: 65.8 mg/dL
- RALB [8]: 2.5 g/dL
- TBIL [8]: 0.082 mg/dL
- TC [8]: 23.2 mg/dL
- TG [8]: 30.2 mg/dL
- TP [8]: 5.3 g/dL
- gamma-GTP [8]: 1 IU/L
- TERMINAL_BW [10]: 202.6 g
- TERMINAL_BW [11]: 211.1 g
- APTT [10]: 20.6 s
- Bas [10]: 0%
- Eos [10]: 1%
- Fbg [10]: 254 mg/dL
- Hb [10]: 13.9 g/dL
- Ht [10]: 39%
- Lym [10]: 78.2%
- MCH [10]: 20.6 pg
- MCHC [10]: 35.7%
- MCV [10]: 57.8 fL
- Mono [10]: 2.6%
- PT [10]: 14 s
- Plat [10]: 122.3 x10_4/uL
- RBC [10]: 675.2 x10_4/ul
- Ret [10]: 0.9%
- WBC [10]: 71.4 x10_2/uL
- APTT [11]: 24.9 s
- Bas [11]: 0%
- Eos [11]: 0.6%
- Fbg [11]: 258.6 mg/dL
- Hb [11]: 12.4 g/dL
- Ht [11]: 33.9%
- Lym [11]: 78.6%
- MCH [11]: 19 pg
- MCHC [11]: 36.6%
- MCV [11]: 51.7 fL
- Mono [11]: 2%
- Neu [11]: 18.2%
- Plat [11]: 120.4 x10_4/uL
- RBC [11]: 656.4 x10_4/ul
- Ret [11]: 1.9%
- WBC [11]: 61.3 x10_2/uL
- KIDNEY_L [12]: 1 g
- KIDNEY_R [12]: 1 g
- KIDNEY_L [13]: 1 g
- KIDNEY_R [13]: 1 g
- LIVER [10]: 14.2 g
- LIVER [11]: 15.1 g
- ALP [10]: 2093.8 IU/L
- AST [10]: 58.4 IU/L
- BUN [10]: 15.4 mg/dL
- CRE [10]: 0.2 mg/dL
- Cl [10]: 104.6 meq/L
- DBIL [10]: 0.074 mg/dL
- IP [10]: 6.4 mg/dL
- LDH [10]: 125.2 IU/L
- Na [10]: 144.8 meq/L
- PL [10]: 89.8 mg/dL
- RALB [10]: 3.1 g/dL
- TBIL [10]: 0.1 mg/dL
- TC [10]: 28.4 mg/dL
- TG [10]: 30.4 mg/dL
- TP [10]: 7 g/dL
- gamma-GTP [10]: 12.2 IU/L
- ALP [11]: 1817.4 IU/L
- ALT [11]: 61.6 IU/L
- BUN [11]: 16.4 mg/dL
- CRE [11]: 0.2 mg/dL
- Cl [11]: 104.6 meq/L
- DBIL [11]: 0.1 mg/dL
- IP [11]: 5.8 mg/dL
- LDH [11]: 94.4 IU/L
- Na [11]: 145 meq/L
- PL [11]: 118.6 mg/dL
- RALB [11]: 3.3 g/dL
- TBIL [11]: 0.3 mg/dL
- TC [11]: 40 mg/dL
- TG [11]: 60.2 mg/dL
- TP [11]: 7.3 g/dL
- gamma-GTP [11]: 19 IU/L
